EC50 data for 26 molecules are collected here from patent publication US8163779B2, “Glucokinase activators” (Takeda San Diego, Inc., priority 2006, dated 2012).

pEC50: −log10 of the molar value. Counter-ions that a name gives are not always drawn. Some results are limits rather than exact numbers.

In this assay the target is T1, glucokinase (GK) (Homo sapiens, UniProt P35557).
T1 construct: I.D. No. 1 corresponds to residues 12-465 of glucokinase; made in house; host or cells: E. coli DH10b-T1r
T1 sequence (P35557 with tags, fused parts or gaps isoform P35557-2): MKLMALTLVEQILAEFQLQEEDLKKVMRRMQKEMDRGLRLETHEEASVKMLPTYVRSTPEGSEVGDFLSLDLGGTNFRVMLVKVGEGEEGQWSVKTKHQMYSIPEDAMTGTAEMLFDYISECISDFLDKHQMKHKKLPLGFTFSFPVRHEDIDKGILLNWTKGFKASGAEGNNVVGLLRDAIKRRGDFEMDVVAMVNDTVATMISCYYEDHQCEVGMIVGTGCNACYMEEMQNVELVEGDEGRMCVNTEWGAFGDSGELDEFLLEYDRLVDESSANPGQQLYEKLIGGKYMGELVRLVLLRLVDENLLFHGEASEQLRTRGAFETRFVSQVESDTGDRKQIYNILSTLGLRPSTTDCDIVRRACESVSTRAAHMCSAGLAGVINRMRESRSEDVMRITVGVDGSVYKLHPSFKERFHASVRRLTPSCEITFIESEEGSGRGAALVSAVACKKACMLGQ
The assay can be described thus: enzymatic glucokinase activity assay (ATP consumption, KinaseGlo luminescence). As to conditions: recombinant GK residues 12-465; 5 μM ATP, 5 mM Glucose; Kact = concentration that displays 50% of the maximal increase in GK activity; read-out: pKact. The format is biochemical. An excerpt: The activity of compounds as glucokinase activators may be assayed in vitro, in vivo or in a cell line. Provided below is an enzymatic glucokinase activity assay.
Purified glucokinase may be obtained as follows. […] SEQ.
The expression of recombinant glucokinase protein may be carried out by transformation and growth of DH10b-T1r E. coli cells incorporating the (pFLAG-CTC) plasmid in LB media. Protein expression can be induced in this system by the addition of IPTG to the culture medium.
Recombinant protein may be isolated from cellular extracts by passage over Sepharose Q Fast Flow resin (Pharmacia). This partially purified GK extract may then be further purified by a second passage over Poros HQ 10 (Applied Biosystems). The purity of GK may be determined on denaturing SDS-PAGE gel. Purified GK may then be concentrated to a final concentration of 20.0 mg/ml. After flash freezing in liquid nitrogen, the proteins can be stored at −78° C. in a buffer containing 25 mM TRIS-HCl pH 7.6, 50 mM NaCl, and 0.5 mM TCEP.
The activation properties of compounds for GK may be determined using a black 384-well-plate format under the following reaction conditions: 25 mM Hepes pH 7.2, 25 mM NaCl, 10 mM MgCl2, 0.01% Brij35, 1 mM DTT, 5 μM ATP, 5 mM Glucose 2% DMSO. The amount of ATP consumed may be determined quantitatively by addition of equal volume of luciferase reagent (luciferase+beetle luciferin—KinaseGlo Luminescent Kinase Assay kit from Promega). The luminescence intensity may be measured by using the Analyst HT from LJL Biosystems.
The reaction mixture may then be incubated at room temperature for 60 min, and quenched and developed by addition of 10 μL of luciferase reagent. Luminescence intensities of the resulting reaction mixtures may be measured after a 10 min incubation at room temperature. The luminescence intensity may be measured by using the Analyst HT from LJL Biosystems.
pKact values may be calculated by non-linear curve fitting of the compound concentrations and luminescence intensities to a standard inhibition/activation equation.
(In general: Kinase-Glo measures the ATP left after a reaction by luminescence.)
Regarding `Cc1cc(N2CCOCC2)cc(=O)n1[C@H](CC1CCCCC1)C(=O)Nc1nccs1` (stereo in doubt) [Example 79, 3-cyclohexyl-2-(6-methyl-4-morpholino-2-oxopyridin-1(2H)-yl)-N-(thiazol-2-yl)propanamide], the pEC50 was < 4.80. The same measure for `Cc1cc(C#CCO)cc(=O)n1[C@H](CC1CCOCC1)C(=O)Nc1ncc(Cl)s1` (stereo in doubt) [Example 137, N-(5-chlorothiazol-2-yl)-2-(4-(3-hydroxyprop-1-ynyl)-6-methyl-2-oxopyridin-1(2H)-yl)-3-(tetrahydro-2H-pyran-4-yl)propanamide]: < 4.80. The same measure for `Cc1cc(O)cc(=O)n1C(CC1CCCCC1)C(=O)Nc1nccs1` (centres unmarked) [Example 1, 3-cyclohexyl-2-(4-hydroxy-6-methyl-2-oxopyridin-1(2H)-yl)-N-(thiazol-2-yl)propanamide trifluoroacetic acid salt]: < 4.80; for `COc1cc(C)n(C(CC2CCCCC2)C(=O)Nc2nccs2)c(=O)c1` (centres unmarked) [Example 2, 3-cyclohexyl-2-(4-methoxy-6-methyl-2-oxopyridin-1(2H)-yl)-N-(thiazol-2-yl)propanamide trifluoroacetic acid salt]: < 4.80. The value for `Cc1cc(S(C)(=O)=O)cc(=O)n1C(CC1CCCCC1)C(=O)Nc1nccs1` (centres unmarked) [Example 3, 3-cyclohexyl-2-(6-methyl-4-(methylsulfonyl)-2-oxopyridin-1(2H)-yl)-N-(thiazol-2-yl)propanamide trifluoroacetic acid salt] was 4.80 to 5.80. Turning to `CCS(=O)(=O)c1cc(C)n(C(CC2CCCCC2)C(=O)Nc2nccs2)c(=O)c1` (centres unmarked) [Example 4, 3-cyclohexyl-2-(4-(ethylsulfonyl)-6-methyl-2-oxopyridin-1(2H)-yl)-N-(thiazol-2-yl)propanamide trifluoroacetic acid salt], the pEC50 is 4.80 to 5.80. The same measure for `Cc1cc(S(=O)(=O)C2CCCC2)cc(=O)n1C(CC1CCCCC1)C(=O)Nc1nccs1` (centres unmarked) [Example 5, 3-cyclohexyl-2-(4-(cyclopentylsulfonyl)-6-methyl-2-oxopyridin-1(2H)-yl)-N-(thiazol-2-yl)propanamide trifluoroacetic acid salt]: > 5.80; for `Cc1cc(S(=O)(=O)C2CCCC2)cc(=O)n1C(CC1CCCCC1)C(=O)Nc1ccc(C(N)=O)cn1` (centres unmarked) [Example 6, 6-(3-cyclohexyl-2-(4-(cyclopentylsulfonyl)-6-methyl-2-oxopyridin-1(2H)-yl)propanamido)nicotinamide trifluoroacetic acid salt]: > 5.80. The value for `Cc1cc(S(C)(=O)=O)cc(=O)n1C(CC1CCOCC1)C(=O)Nc1nccs1` (centres unmarked) [Example 7, 2-(6-methyl-4-(methylsulfonyl)-2-oxopyridin-1(2H)-yl)-3-(tetrahydro-2H-pyran-4-yl)-N-(thiazol-2-yl)propanamide trifluoroacetic acid salt] was < 4.80.

`O=C(Nc1nccs1)C(CC1CCCCC1)n1ccc(S(=O)(=O)C2CCCC2)cc1=O` (centres unmarked) [Example 8, 3-cyclohexyl-2-(4-(cyclopentylsulfonyl)-2-oxopyridin-1(2H)-yl)-N-(thiazol-2-yl)propanamide trifluoroacetic acid salt]: the pEC50 was > 5.80. For the molecule `CS(=O)(=O)c1ccn(C(Cc2cc(F)ccc2Cl)C(=O)Nc2ncc(Cl)s2)c(=O)c1` (centres unmarked) [Example 9, 3-(2-chloro-5-fluorophenyl)-N-(5-chlorothiazol-2-yl)-2-(4-(methylsulfonyl)-2-oxopyridin-1(2H)-yl)propanamide], the pEC50 was < 4.80. The value for `Cc1ccc(CC(C(=O)Nc2nccs2)n2c(C)cc(S(=O)(=O)C3CCCC3)cc2=O)cc1` (centres unmarked) [Example 10, 2-(4-(cyclopentylsulfonyl)-6-methyl-2-oxopyridin-1(2H)-yl)-N-(thiazol-2-yl)-3-p-tolylpropanamide] was < 4.80; that for `Cc1cc(S(=O)(=O)C2CCCC2)cc(=O)n1C(CC(C)C)C(=O)Nc1nccs1` (centres unmarked) [Example 11, 2-(4-(cyclopentylsulfonyl)-6-methyl-2-oxopyridin-1(2H)-yl)-4-methyl-N-(thiazol-2-yl)pentanamide] was > 5.80. The value for `Cc1cc(S(=O)(=O)C2CCCC2)cc(=O)n1C(CC1CC1)C(=O)Nc1nccs1` (centres unmarked) [Example 12, 2-(4-(cyclopentylsulfonyl)-6-methyl-2-oxopyridin-1(2H)-yl)-3-cyclopropyl-N-(thiazol-2-yl)propanamide] was 4.80 to 5.80. The value for `O=C(Nc1nccs1)[C@H](CC1CCCCC1)n1ccc(S(=O)(=O)C2CCCC2)cc1=O` [Example 13, (S)-3-cyclohexyl-2-(4-(cyclopentylsulfonyl)-2-oxopyridin-1(2H)-yl)-N-(thiazol-2-yl)propanamide] was > 5.80.

As for `Cc1cc(S(=O)(=O)C2CCCC2)cc(=O)n1C(CC1CCCC1)C(=O)Nc1nccs1` (centres unmarked) [Example 14, 3-cyclopentyl-2-(4-(cyclopentylsulfonyl)-6-methyl-2-oxopyridin-1(2H)-yl)-N-(thiazol-2-yl)propanamide], the pEC50 is > 5.80.

Take `CS(=O)(=O)c1ccn(C(Cc2ccsc2)C(=O)Nc2ncc(Cl)s2)c(=O)c1` (centres unmarked) [Example 15, N-(5-chlorothiazol-2-yl)-2-(4-(methylsulfonyl)-2-oxopyridin-1(2H)-yl)-3-(thiophen-3-yl)propanamide]: the pEC50 is < 4.80. `Cc1cc(S(=O)(=O)C2CCCC2)cc(=O)n1C(CC1CCOCC1)C(=O)Nc1nccs1` (centres unmarked) [Example 16, 2-(4-(cyclopentylsulfonyl)-6-methyl-2-oxopyridin-1(2H)-yl)-3-(tetrahydro-2H-pyran-4-yl)-N-(thiazol-2-yl)propanamide]: the pEC50 is 4.80 to 5.80. In the case of `CS(=O)(=O)c1ccn(C(Cc2c(Cl)cccc2Cl)C(=O)Nc2ncc(Cl)s2)c(=O)c1` (centres unmarked) [Example 17, N-(5-chlorothiazol-2-yl)-3-(2,6-dichlorophenyl)-2-(4-(methylsulfonyl)-2-oxopyridin-1(2H)-yl)propanamide], the pEC50 was < 4.80. In the case of `CCCCC(C(=O)Nc1nccs1)n1c(C)cc(S(=O)(=O)C2CCCC2)cc1=O` (centres unmarked) [Example 18, 2-(4-(cyclopentylsulfonyl)-6-methyl-2-oxopyridin-1(2H)-yl)-N-(thiazol-2-yl)hexanamide], the pEC50 was 4.80 to 5.80. The same measure for `Cc1cc(S(=O)(=O)C2CCCC2)cc(=O)n1C(CCC(C)C)C(=O)Nc1nccs1` (centres unmarked) [Example 19, 2-(4-(cyclopentylsulfonyl)-6-methyl-2-oxopyridin-1(2H)-yl)-5-methyl-N-(thiazol-2-yl)hexanamide]: 4.80 to 5.80. Consider `COc1cccc(CC(C(=O)Nc2nccs2)n2c(C)cc(S(=O)(=O)C3CCCC3)cc2=O)c1` (centres unmarked) [Example 20, 2-(4-(cyclopentylsulfonyl)-6-methyl-2-oxopyridin-1(2H)-yl)-3-(3-methoxyphenyl)-N-(thiazol-2-yl)propanamide], for which the pEC50 was < 4.80. The same measure for `Cc1cc(S(=O)(=O)C2CCCC2)cc(=O)n1C(Cc1ccco1)C(=O)Nc1nccs1` (centres unmarked) [Example 21, 2-(4-(cyclopentylsulfonyl)-6-methyl-2-oxopyridin-1(2H)-yl)-3-(furan-2-yl)-N-(thiazol-2-yl)propanamide]: < 4.80. The value for `CS(=O)(=O)c1ccn([C@H](CC2CCOCC2)C(=O)Nc2ncc(Cl)s2)c(=O)c1` [Example 22, (R)-N-(5-chlorothiazol-2-yl)-2-(4-(methylsulfonyl)-2-oxopyridin-1(2H)-yl)-3-(tetrahydro-2H-pyran-4-yl)propanamide] was < 4.80; that for `CS(=O)(=O)c1ccn([C@@H](CC2CCOCC2)C(=O)Nc2ncc(Cl)s2)c(=O)c1` [Example 23, (S)-N-(5-chlorothiazol-2-yl)-2-(4-(methylsulfonyl)-2-oxopyridin-1(2H)-yl)-3-(tetrahydro-2H-pyran-4-yl)propanamide] was 4.80 to 5.80; that for `Cc1cc(C)cc(CC(C(=O)Nc2ncc(Cl)s2)n2ccc(S(C)(=O)=O)cc2=O)c1` (centres unmarked) [Example 24, N-(5-chlorothiazol-2-yl)-3-(3,5-dimethylphenyl)-2-(4-(methylsulfonyl)-2-oxopyridin-1(2H)-yl)propanamide] was < 4.80.
